ChEMBL document CHEMBL2074388 (Am J Physiol Renal Physiol, 2001)

What was measured:
[1] = target: T1, Solute carrier family 22 member 2 (Rattus norvegicus, UniProt Q9R0W2); experiment: TP_TRANSPORTER: inhibition of TEA uptake (electrogenicity) in Xenopus laevis oocytes
T1 sequence (Q9R0W2 whole entry): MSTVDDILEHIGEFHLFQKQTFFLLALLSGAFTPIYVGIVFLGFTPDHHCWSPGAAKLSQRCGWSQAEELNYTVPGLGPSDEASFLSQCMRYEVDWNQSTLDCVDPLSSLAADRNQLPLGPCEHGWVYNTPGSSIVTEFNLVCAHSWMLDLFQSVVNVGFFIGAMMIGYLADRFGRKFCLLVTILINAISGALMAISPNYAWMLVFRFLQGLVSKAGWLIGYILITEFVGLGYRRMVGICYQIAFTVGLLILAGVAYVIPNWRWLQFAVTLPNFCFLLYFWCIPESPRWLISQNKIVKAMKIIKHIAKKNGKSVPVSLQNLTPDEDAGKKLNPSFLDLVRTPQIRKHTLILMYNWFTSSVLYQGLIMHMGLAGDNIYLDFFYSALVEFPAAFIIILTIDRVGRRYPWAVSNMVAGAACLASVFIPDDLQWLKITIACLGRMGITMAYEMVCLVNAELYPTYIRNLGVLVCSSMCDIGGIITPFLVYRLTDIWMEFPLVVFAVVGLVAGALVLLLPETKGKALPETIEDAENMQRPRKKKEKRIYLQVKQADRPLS

[2] = target: T2, Solute carrier family 22 member 1 (Rattus norvegicus, UniProt Q63089); assay type: functional, cell-based, Xenopus laevis, Oocyte
T2 sequence (Q63089 whole entry): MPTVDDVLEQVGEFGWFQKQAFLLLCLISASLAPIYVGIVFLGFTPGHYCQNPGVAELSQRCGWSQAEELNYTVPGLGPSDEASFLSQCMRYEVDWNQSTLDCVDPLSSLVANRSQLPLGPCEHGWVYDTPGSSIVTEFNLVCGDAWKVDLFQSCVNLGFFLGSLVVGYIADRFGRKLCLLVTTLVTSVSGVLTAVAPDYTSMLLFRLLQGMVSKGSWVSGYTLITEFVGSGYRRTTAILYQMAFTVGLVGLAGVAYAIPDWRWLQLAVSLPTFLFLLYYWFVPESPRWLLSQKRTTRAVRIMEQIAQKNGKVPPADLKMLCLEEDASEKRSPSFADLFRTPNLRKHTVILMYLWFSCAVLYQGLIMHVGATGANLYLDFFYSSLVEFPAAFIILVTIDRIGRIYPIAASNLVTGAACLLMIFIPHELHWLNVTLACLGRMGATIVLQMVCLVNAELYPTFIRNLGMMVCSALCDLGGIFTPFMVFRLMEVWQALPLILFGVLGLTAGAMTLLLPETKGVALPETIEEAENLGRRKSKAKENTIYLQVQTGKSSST

[3] = target: T1, Solute carrier family 22 member 2; assay type: functional, cell-based, Xenopus laevis, Oocyte
[4] = target: T1, Solute carrier family 22 member 2; experiment: TP_TRANSPORTER: inhibition of TEA uptake in Xenopus laevis oocytes; assay type: functional, cell-based, Oocyte
[5] = substrate: NCCc1c[nH]cn1; experiment: cells, lysate or membranes named
[6] = substrate: N=C(N)N; experiment: (§1) TP_TRANSPORTER: uptake in Xenopus laevis oocytes; assay type: functional, cell-based, Oocyte
[7] = substrate: C[N+](C)(C)CCO; experiment: cells, lysate or membranes named
[8] = substrate: CC[N+](CC)(CC)CC; experiment: cells, lysate or membranes named
[9] = substrate: C[n+]1ccc(-c2ccccc2)cc1; experiment: as §1; assay type: functional, cell-based, Oocyte
[10] = substrate: CNC(=O)c1cccnc1; experiment: as §1; assay type: functional, cell-based, Oocyte

Q: With `CCCC[N+](CCCC)(CCCC)CCCC` [TETRABUTHYLAMMONIUM] as the molecule, how does the Ki [1] read?
A: 12 µM

Q: `COc1cc(C(O)CNC(C)C)ccc1O` (stereo unspecified) [METIPRENALINE] was tested. Which IC50 [2] did it give?
A: 37 µM

Q: Which IC50 [3] does the source give for `C=C[C@H]1C[N@@]2CC[C@H]1C[C@@H]2[C@@H](O)c1ccnc2ccc(OC)cc12` [QUINIDINE] here?
A: 14.6 µM

Q: With `C=C[C@H]1C[N@@]2CC[C@H]1C[C@H]2[C@H](O)c1ccnc2ccc(OC)cc12` [QUININE] as the molecule, how does the Ki [4] read?
A: 55 µM

Q: `CNCCCN1c2ccccc2CCc2ccccc21` [DESIPRAMINE] was tested. Which IC50 [3] did it give?
A: 10 µM

Q: For `N=C(N)N` [GUANIDINE], which IC50 [2] is on record?
A: 4470 µM

Q: What about the IC50 [3] of the same molecule?
A: 171 µM

Q: Which IC50 [2] does the source give for `C[C@]12C[C@H](O)[C@H]3[C@@H](CCC4=CC(=O)CC[C@@]43C)[C@@H]1CC[C@@H]2C(=O)CO` [CORTICOSTERONE] here?
A: 151 µM

Q: And the IC50 [3]?
A: 4 µM

Q: Which IC50 [2] does the source give for `O=C(O)CCC(=O)C(=O)O` [ALPHA-KETOGLUTARIC ACID] here?
A: 740 µM

Q: And the IC50 [3]?
A: 700 µM

Q: With `Nc1ccc(C(=O)NCC(=O)O)cc1` [AMINOHIPPURIC ACID] as the molecule, how does the IC50 [2] read?
A: 1300 µM

Q: And the IC50 [3]?
A: 4500 µM

Q: `C[N+](C)(C)C` [TETRAMETHYLAMMONIUM] was tested. Which IC50 [3] did it give?
A: 630 µM

Q: Which IC50 [2] does the source give for `CC(C)C(c1ccccc1)C(O)CC[N+]1(C)CCCCC1` (stereo unspecified) [MEPIPERPHENIDOL BROMIDE] here?
A: 7.1 µM

Q: And the IC50 [3]?
A: 474 µM

Q: How did the IC50 [3] turn out when `CCN(CC)CCNC(=O)c1ccc(N)cc1` [PROCAINAMIDE] was run?
A: 445 µM

Q: Which IC50 [2] does the source give for `CCC[N+](CCC)(CCC)CCC` [TETRAPROPYLAMMONIUM] here?
A: 11.3 µM

Q: What about the IC50 [3] of the same molecule?
A: 6.2 µM

Q: `CCCN(CCC)S(=O)(=O)c1ccc(C(=O)O)cc1` [PROBENECID] was tested. Which IC50 [2] did it give?
A: 1640 µM

Q: What about the IC50 [3] of the same molecule?
A: 1700 µM

Q: Which IC50 [2] does the source give for `CC[n+]1c(CC2C=C(C)N=C(c3ccccc3)N2C)ccc2ccccc21` (stereo unspecified) [Cyanine-863] here?
A: 0.51 µM

Q: And the IC50 [3]?
A: 2.56 µM

B1: Solute carrier family 22 member 1 (Rattus norvegicus) (protein)
chain: MPTVDDVLEQVGEFGWFQKQAFLLLCLISASLAPIYVGIVFLGFTPGHYCQNPGVAELSQRCGWSQAEELNYTVPGLGPSDEASFLSQCMRYEVDWNQSTLDCVDPLSSLVANRSQLPLGPCEHGWVYDTPGSSIVTEFNLVCGDAWKVDLFQSCVNLGFFLGSLVVGYIADRFGRKLCLLVTTLVTSVSGVLTAVAPDYTSMLLFRLLQGMVSKGSWVSGYTLITEFVGSGYRRTTAILYQMAFTVGLVGLAGVAYAIPDWRWLQLAVSLPTFLFLLYYWFVPESPRWLLSQKRTTRAVRIMEQIAQKNGKVPPADLKMLCLEEDASEKRSPSFADLFRTPNLRKHTVILMYLWFSCAVLYQGLIMHVGATGANLYLDFFYSSLVEFPAAFIILVTIDRIGRIYPIAASNLVTGAACLLMIFIPHELHWLNVTLACLGRMGATIVLQMVCLVNAELYPTFIRNLGMMVCSALCDLGGIFTPFMVFRLMEVWQALPLILFGVLGLTAGAMTLLLPETKGVALPETIEEAENLGRRKSKAKENTIYLQVQTGKSSST
Q: What does the source list for B1?
A: Km [5]: 300 µM; Km [6]: 1660 µM

B2: Solute carrier family 22 member 2 (Rattus norvegicus) (protein)
chain: MSTVDDILEHIGEFHLFQKQTFFLLALLSGAFTPIYVGIVFLGFTPDHHCWSPGAAKLSQRCGWSQAEELNYTVPGLGPSDEASFLSQCMRYEVDWNQSTLDCVDPLSSLAADRNQLPLGPCEHGWVYNTPGSSIVTEFNLVCAHSWMLDLFQSVVNVGFFIGAMMIGYLADRFGRKFCLLVTILINAISGALMAISPNYAWMLVFRFLQGLVSKAGWLIGYILITEFVGLGYRRMVGICYQIAFTVGLLILAGVAYVIPNWRWLQFAVTLPNFCFLLYFWCIPESPRWLISQNKIVKAMKIIKHIAKKNGKSVPVSLQNLTPDEDAGKKLNPSFLDLVRTPQIRKHTLILMYNWFTSSVLYQGLIMHMGLAGDNIYLDFFYSALVEFPAAFIIILTIDRVGRRYPWAVSNMVAGAACLASVFIPDDLQWLKITIACLGRMGITMAYEMVCLVNAELYPTYIRNLGVLVCSSMCDIGGIITPFLVYRLTDIWMEFPLVVFAVVGLVAGALVLLLPETKGKALPETIEDAENMQRPRKKKEKRIYLQVKQADRPLS
Q: With B2 as the molecule, how does the Km [7] read?
A: 604 µM

Q: What about the Km [5] of the same molecule?
A: 278 µM

Q: And the Km [8]?
A: 91 µM

Q: And the Km [9]?
A: 17 µM

Q: What about the Km [10] of the same molecule?
A: 245 µM

Q: And the Km [6]?
A: 172 µM
